“And” between values parts separate entries of the source, which are not always exact repeats. Equal entries are not always repeated. Where two headings read alike, the source gives them in different places.
Tests used:
[1] = format: in vivo, human; conditions: for AUClast: 0.25-12 hour; for ratio of mean AUC in SLCO1B1 c.521‐CC to c.521TT: endogenous biomarker; for C0: plasma; for baseline (C0) level: 16 samples
OATP1B1 = format: in vivo, human; conditions: human, plasma, oral; for AUC(0-t): AUClast, 0.25-12 hour; for C0: C0, plasma, baseline
[2] = for AUC(0-t): AUC0→12, text, pravastatin peak only
[3] = pravastatin + cyclosporine, all genotype (N = 16)
[4] = pravastatin + placebo, TT (N = 8)
[5] = pravastatin + placebo, all genotype (N = 16)
[6] = 12 hours after first CsA dose, pravastatin + cyclosporine, all genotype
[7] = baseline, pravastatin + placebo, all genotype
[8] = pravastatin + cyclosporine (N = 16)
[9] = pravastatin + cyclosporine, CC (N = 2)
[10] = pravastatin + cyclosporine, TC (N = 6)
[11] = pravastatin + cyclosporine, TT (N = 8)
[12] = pravastatin + placebo, CC (N = 2)
[13] = pravastatin + placebo, TC (N = 6)

Molecule: O=C(O)CCCCCCCCCCCCCCC(=O)O [HDA, hexadecanedioic acid]
- AUClast [1, 3]: 1,070 ± 357 nM·hour
- AUClast [1, 4]: 557 ± 161 nM·h
- AUClast [1, 5]: 649 ± 346 nM·h
- C0 fold increase, pravastatin plus CsA over pravastatin plus placebo ([1]; CC): 1.0 fold
- AUClast fold increase, pravastatin plus CsA over pravastatin plus placebo ([1]; CC (N = 2)): 1.2 fold
- Cavg fold increase, pravastatin plus CsA over pravastatin plus placebo ([1]; CC (N = 2)): 1.2 fold
- C0 fold increase, pravastatin plus CsA over pravastatin plus placebo ([1]; TC): 1.6 fold
- AUClast fold increase, pravastatin plus CsA over pravastatin plus placebo ([1]; TC (N = 6)): 1.7 fold
- Cavg fold increase, pravastatin plus CsA over pravastatin plus placebo ([1]; TC (N = 6)): 2.0 fold
- C0 fold increase, pravastatin plus CsA over pravastatin plus placebo ([1]; TT): 1.7 fold
- AUClast fold increase, pravastatin plus CsA over pravastatin plus placebo ([1]; TT (N = 8)): 2.0 fold
- Cavg fold increase, pravastatin plus CsA over pravastatin plus placebo ([1]; TT (N = 8)): 2.2 fold
- AUClast fold increase, pravastatin plus CsA over pravastatin plus placebo ([1]; all genotype): 1.8 fold
- Cavg fold increase, pravastatin plus CsA over pravastatin plus placebo ([1]; all genotype): 2.0 fold
- Cmax fold increase, pravastatin plus CsA over pravastatin plus placebo ([1]; all genotype (N = 16)): 2.1 fold
- ratio of mean AUC in SLCO1B1 c.521‐CC to c.521TT [1]: 2.6 fold
- C0 [1, 6]: 84 ± 33 nM
- C0 [1, 7]: 60.1 ± 37 nM
- Cmax [1, 8]: 155 ± 55.1 nM
- Cavg [1, 9]: 149 ± 5.0 nM
- Cavg [1, 10]: 86.9 ± 33.0 nM
- Cavg [1, 11]: 98.5 ± 27.8 nM
- Cavg [1, 3]: 100 ± 33.3 nM
- Cmax ([1]; pravastatin + placebo (N = 16)): 90.6 ± 77.3 nM
- Cavg [1, 12]: 135 ± 46.6 nM
- Cavg [1, 13]: 44.0 ± 11.5 nM
- Cavg [1, 4]: 46.1 ± 14.3 nM
- Cavg [1, 5]: 56.4 ± 35.1 nM and 56.4 ± 35.1****^, ^b nM
- increase in plasma concentration, Cmax over baseline ([1]; pravastatin plus placebo, individuals homozygous c.521‐CC): at least twofold
- time of peak plasma level ([1]; two individuals c.521‐CC): around 3 hours and 3.0 hours
- AUC(0-t) (OATP1B1; [9]): 1.68 µM·h
- AUC(0-t) (OATP1B1; [10]): 0.853 ± 0.303 µM·h
- AUC(0-t) (OATP1B1; [11]): 1.07 µM·h
- AUC(0-t) (OATP1B1; [12]): 1.45 µM·h
- AUC(0-t) (OATP1B1; [13]): 0.506 ± 0.116 µM·h
- C0 (OATP1B1; pravastatin + placebo, CC): 114 ± 47.5 nM
- C0 (OATP1B1; pravastatin + placebo, TC): 43.1 ± 13.4 nM
- C0 (OATP1B1; pravastatin + placebo, TT): 52 ± 29.6 nM

Molecule: CC[C@H](C)C(=O)O[C@H]1C[C@H](O)C=C2C=C[C@H](C)[C@H](CC[C@@H](O)C[C@@H](O)CC(=O)O)[C@H]21 [pravastatin]
- Tmax ([2]; human, plasma, oral, 40 mg): 1.5 h
- AUC(0-t) ([2]; human, plasma, oral, 40 mg, pravastatin + placebo, TC): 48 ± 23 ng·h/mL
- AUC(0-t) ([2]; human, plasma, oral, 40 mg, pravastatin + placebo, c.521‐TT): 43 ± 15 ng·h/mL
- CL/F ([2]; human, plasma, oral, pravastatin + cyclosporine, CC (N = 3)): 10.7 mL/min/kg
- CL/F ([2]; human, plasma, oral, pravastatin + cyclosporine, TC (N = 8)): 24.2 mL/min/kg
- CL/F ([2]; human, plasma, oral, pravastatin + cyclosporine, TT (N = 9)): 24.5 mL/min/kg
- CL/F ([2]; human, plasma, oral, pravastatin + cyclosporine, all genotype): 22.3 mL/min/kg
- CL/F ([2]; human, plasma, oral, pravastatin + placebo, CC (N = 3)): 27.5 mL/min/kg
- CL/F ([2]; human, plasma, oral, pravastatin + placebo, TC (N = 8)): 90.3 mL/min/kg
- CL/F ([2]; human, plasma, oral, pravastatin + placebo, TT (N = 9)): 102 mL/min/kg
- CL/F ([2]; human, plasma, oral, pravastatin + placebo, all genotype): 86.2 mL/min/kg
- ratio of mean AUC0→12 in SLCO1B1 c.521CC and c.521TT ([2]; named peak only): 3.6 fold
- Cmax ([2]; named peak only (not combined), pravastatin + placebo, TC (N=8)): 31 ± 19 ng/mL
- V/F ([2]; pravastatin + cyclosporine, CC (N = 3)): 0.85 ± 0.70 L/kg
- V/F ([2]; pravastatin + cyclosporine, TC (N = 8)): 1.52 ± 0.54 L/kg
- V/F ([2]; pravastatin + cyclosporine, TT (N = 9)): 1.92 ± 1.34 L/kg
- V/F ([2]; pravastatin + cyclosporine, all genotype): 1.60 ± 1.02 L/kg
- V/F ([2]; pravastatin + placebo, CC (N = 3)): 1.94 ± 1.37 L/kg
- V/F ([2]; pravastatin + placebo, TC (N = 8)): 9.49 ± 9.08 L/kg
- V/F ([2]; pravastatin + placebo, TT (N = 9)): 9.56 ± 8.74 L/kg
- V/F ([2]; pravastatin + placebo, all genotype): 8.39 ± 8.39 L/kg

Molecule: coproporphyrin I [CP‐I]
- AUClast [1, 9]: 27.6 ± 8.4 nM·h
- AUClast [1, 10]: 16.5 ± 5.7 nM·h
- AUClast [1, 11]: 11.8 ± 2.3 nM·h
- AUClast [1, 3]: 15.5 ± 6.7 nM·h
- AUClast [1, 12]: 17.8 ± 3.2 nM·h
- AUClast [1, 13]: 9.8 ± 3.3 nM·h
- AUClast [1, 4]: 6.9 ± 1.2 nM·h
- AUClast [1, 5]: 9.4 ± 4.2 nM·h
- baseline (C0) level [1]: below the levels of quantification for 12 of 16 samples
- AUClast fold increase, pravastatin plus CsA over pravastatin plus placebo ([1]; CC (N = 2)): 1.5 fold
- Cavg fold increase, pravastatin plus CsA over pravastatin plus placebo ([1]; CC (N = 2)): 1.6 fold
- AUClast fold increase, pravastatin plus CsA over pravastatin plus placebo ([1]; TC (N = 6)): 1.7 fold
- Cavg fold increase, pravastatin plus CsA over pravastatin plus placebo ([1]; TC (N = 6)): 2.0 fold
- AUClast fold increase, pravastatin plus CsA over pravastatin plus placebo ([1]; TT (N = 8)): 1.7 fold
- Cavg fold increase, pravastatin plus CsA over pravastatin plus placebo ([1]; TT (N = 8)): 1.9 fold
- Cavg fold increase, pravastatin plus CsA over pravastatin plus placebo ([1]; all genotype): 1.9 fold
- Cmax fold increase, pravastatin plus CsA over pravastatin plus placebo ([1]; all genotype (N = 16)): 2.2 fold
- ratio of mean AUC in SLCO1B1 c.521‐CC to c.521TT [1]: 2.6 fold
- C0 [1, 6]: BLOQ in most samples
- C0 [1, 7]: BLOQ in most samples
- Cmax [1, 8]: 2.16 ± 0.71 nM
- Cavg [1, 9]: 2.50 ± 0.68 nM
- Cavg [1, 10]: 1.67 ± 0.33 nM
- Cavg [1, 11]: 1.15 ± 0.28 nM
- Cavg [1, 3]: 1.51 ± 0.56 nM
- Cmax ([1]; pravastatin + placebo (N = 16)): 1.04 ± 0.45 nM
- Cavg [1, 13]: 0.88 ± 0.26 nM
- Cavg [1, 4]: 0.6 ± 0.1 nM
- Cavg [1, 5]: 0.83 ± 0.36 nM and 0.83 ± 0.36****^, ^b nM

Molecule: coproporphyrin III [CP‐III]
- AUClast [1, 9]: 2.22 ± 0.13 nM·h
- AUClast [1, 10]: 1.65 ± 0.60 nM·h
- AUClast [1, 11]: 1.56 ± 0.24 nM·h
- AUClast [1, 3]: 1.68 ± 0.44 nM·h
- AUClast [1, 12]: 1.7 ± 0.013 nM·h
- AUClast [1, 13]: 1.0 ± 0.68 nM·h
- AUClast [1, 4]: 1.2 ± 0.17 nM·h
- baseline (C0) level [1]: below the levels of quantification for 12 of 16 samples
- AUClast fold increase, pravastatin plus CsA over pravastatin plus placebo ([1]; CC (N = 2)): 1.2 fold
- Cavg fold increase, pravastatin plus CsA over pravastatin plus placebo ([1]; CC (N = 2)): 1.3 fold
- AUClast fold increase, pravastatin plus CsA over pravastatin plus placebo ([1]; TC (N = 6)): 3.0 fold
- Cavg fold increase, pravastatin plus CsA over pravastatin plus placebo ([1]; TC (N = 6)): 1.7 fold
- AUClast fold increase, pravastatin plus CsA over pravastatin plus placebo ([1]; TT (N = 8)): 1.3 fold
- Cavg fold increase, pravastatin plus CsA over pravastatin plus placebo ([1]; TT (N = 8)): 1.4 fold
- AUClast fold increase, pravastatin plus CsA over pravastatin plus placebo ([1]; all genotype): 1.9 fold and 1.68 ± 0.44 (1.9) fold
- Cavg fold increase, pravastatin plus CsA over pravastatin plus placebo ([1]; all genotype): 1.5 fold
- Cmax fold increase, pravastatin plus CsA over pravastatin plus placebo ([1]; all genotype (N = 16)): 1.7 fold
- C0 [1, 6]: BLOQ in most samples
- C0 [1, 7]: BLOQ in most samples
- Cmax [1, 8]: 0.24 ± 0.05 nM
- Cavg [1, 9]: 0.21 ± 0.008 nM
- Cavg [1, 10]: 0.18 ± 0.02 nM
- Cavg [1, 11]: 0.15 ± 0.03 nM
- Cavg [1, 3]: 0.17 ± 0.03 nM
- Cmax ([1]; pravastatin + placebo (N = 16)): 0.15 ± 0.039 nM
- Cavg [1, 12]: 0.15 ± 0.004 nM
- Cavg [1, 13]: 0.11 ± 0.03 nM
- Cavg [1, 4]: 0.11 ± 0.02 nM

Source: paper PMC6662551 (Clinical and Translational Science, 2019)
